Measurements reported in US20200289514A1, “Novel Pyrazolo Pyrimidine Derivatives” (Novartis AG, priority 2015, published 2020).

Key:
[1] = system: Human IL2 promoter; assay: Human IL2 promoter reporter gene assay (RGA) in Jurkat cells; assay type: cell-based; details: Jurkat clone K22 290_H23, anti-CD28 mAb + PMA, 5.5 h
Method: Human IL2 Promoter Reporter Gene Assay (RGA) in Jurkat Cells
The transfected Jurkat clone K22 290_H23 was propagated in RPMI 1640 supplemented with 10% heat inactivated fetal calf serum, 50 μM 2-mercaptoethanol and 1 mg/ml Geneticin. The cell concentration should not exceed 1×10e6/ml during culturing. The cells should not exceed passage 30. Prior to the assay the cells were washed and prepared to the concentration of 2×10e6 cells/ml.
Compound dilutions were made as 2×-concentrated solutions then diluted ½ by addition to cells. Two hundred and fifty μl of compound dilution and 250 μl of cells were mixed together in wells of a 96-deep well plate. Cells/compounds premix were incubated 30 min at 37° C. and 5% CO2 directly in the deep well plate.
After pre-incubation of cells with compounds, cells were stimulated with anti-CD28 mAb (clone 15E8) at 3 μg/ml+PMA at 1 μg/ml. Both co-stimulants were diluted in culture medium at a 10×-concentrated solution. 10 μl of co-stimulants were pipetted into the white 96-well plates and 100 μl of cell/compound mix was immediately added in duplicates. The cells were stimulated for 5.5 h at 37° C. and 5% CO2.
After cell stimulation, 50 μl of BriteLitePlus reagent (Perkin Elmer) was added to each well and the bioluminescence was measured with a Wallac EnVision reader (Perkin Elmer).

[2] = target: T1, C-domain of MALT1 (amino acids 329-824) (Homo sapiens, UniProt Q9UDY8); assay: MALT1 Biochemical Assay - Version 1 (fluorescence lifetime)
T1 sequence (Q9UDY8 329-824): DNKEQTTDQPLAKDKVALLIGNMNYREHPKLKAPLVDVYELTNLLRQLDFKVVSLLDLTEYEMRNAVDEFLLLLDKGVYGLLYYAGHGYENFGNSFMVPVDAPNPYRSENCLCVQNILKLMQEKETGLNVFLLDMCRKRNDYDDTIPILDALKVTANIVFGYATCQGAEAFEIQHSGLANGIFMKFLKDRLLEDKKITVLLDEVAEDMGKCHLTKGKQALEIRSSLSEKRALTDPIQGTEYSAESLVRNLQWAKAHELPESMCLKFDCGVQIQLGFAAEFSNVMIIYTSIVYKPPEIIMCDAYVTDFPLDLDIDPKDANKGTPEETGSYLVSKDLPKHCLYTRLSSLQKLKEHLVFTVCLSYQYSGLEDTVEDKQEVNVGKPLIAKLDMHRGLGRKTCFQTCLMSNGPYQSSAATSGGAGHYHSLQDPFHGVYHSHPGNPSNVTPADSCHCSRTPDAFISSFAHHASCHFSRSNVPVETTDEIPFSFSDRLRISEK
Method: The readout parameter is the increase of fluorescence lifetime over time, proportional to enzyme activity.
The assay employs a short peptide substrate labeled with the single fluorophore PT14 as a fluorescence lifetime probe sensitive to the cleavage state of the substrate (PT14: 6-(9-oxo-9H-acridin-10-yl)-hexanoate, AssayMetrics, UK). […] Test compounds were dissolved in 100% (v/v) DMSO or a mixture containing 90% (v/v) DMSO and 10% (v/v) H2O at a stock concentration of 100 mM. Serial dilutions of test compounds were prepared using either 100% (v/v) DMSO or a mixture containing 90% (v/v) DMSO and 10% (v/v) H2O.
where y is the %-inhibition at the inhibitor concentration, x. A1 is the lowest inhibition value, and A2 the maximum inhibition value. The exponent, p, is the Hill coefficient.

Row | Structure (SMILES) | IC50 [1] | IC50 [2]
1 | CO[C@@H](C)c1c(NC(=O)Nc2ccnc(C(F)(F)F)c2)cnc2cc(Cl)nn12 [Example 3, (S)-1-(2-chloro-7-(1-methoxyethyl)pyrazolo[1,5-a]pyrimidin-6-yl)-3-(2-(trifluoromethyl)pyridin-4-yl)urea] | 36 nM | 
2 | CC(C)c1c(NC(=O)Nc2cnc(-n3nccn3)c(Cl)c2)cnc2cc(Cl)nn12 [Example 4, 1-(5-chloro-6-(2H-1,2,3-triazol-2-yl)pyridin-3-yl)-3-(2-chloro-7-isopropylpyrazolo[1,5-a]pyrimidin-6-yl)urea] | 103 nM | 
3 | COc1ncc(NC(=O)Nc2cnc3cc(F)nn3c2[C@H](C)OC)cc1C#N [Example 6, (S)-1-(5-cyano-6-methoxypyridin-3-yl)-3-(2-fluoro-7-(1-methoxyethyl)pyrazolo[1,5-a]pyrimidin-6-yl)urea] | 41 nM | 4 nM
4 | COCC1(c2c(NC(=O)Nc3cncc(C#N)c3)cnc3cc(Cl)nn23)CC1 [Example 9, 1-(2-chloro-7-(1-(methoxymethyl)cyclopropyl)pyrazolo[1,5-a]pyrimidin-6-yl)-3-(5-cyanopyridin-3-yl)urea] | 93 nM | 29 nM
5 | CO[C@@H](C)c1c(NC(=O)Nc2cncc(C#N)c2)cnc2cc(F)nn12 [Example 12, (S)-1-(5-cyanopyridin-3-yl)-3-(2-fluoro-7-(1-methoxyethyl)pyrazolo[1,5-a]pyrimidin-6-yl)urea] | 73 nM | 31 nM
6 | CC(=O)N1CC[C@@H](O[C@@H](C)c2c(NC(=O)Nc3cnc(-n4nccn4)c(Cl)c3)cnc3cc(Cl)nn23)C1 [Example 13, 1-(7-((S)-1-(((R)-1-acetylpyrrolidin-3-yl)oxy)ethyl)-2-chloropyrazolo[1,5-a]pyrimidin-6-yl)-3-(5-chloro-6-(2H-1,2,3-triazol-2-yl)pyridin-3-yl)urea] | 88 nM | 23 nM
7 | CO[C@@H](C)c1c(NC(=O)Nc2cc(C(C)O)nc(C(F)(F)F)c2)cnc2cc(F)nn12 (stereo partly drawn) [Example 17, 1-(2-fluoro-7-((S)-1-methoxyethyl)pyrazolo [1,5-a]pyrimidin-6-yl)-3-(2-(1-hydroxyethyl)-6-(trifluoromethyl)pyridin-4-yl)urea] | 87 nM | 20 nM
8 | COCC(OC)c1c(NC(=O)Nc2cnc(-n3nccn3)c(C#N)c2)cnc2cc(Cl)nn12 (centres unmarked) [Example 19, 1-(2-chloro-7-(1,2-dimethoxyethyl)pyrazolo [1,5-a]pyrimidin-6-yl)-3-(5-cyano-6-(2H-1,2,3-triazol-2-yl)pyridin-3-yl)urea] | 56 nM | 9 nM
9 | CO[C@@H](C)c1c(NC(=O)Nc2ccnc(C(O)C(F)(F)F)c2)cnc2cc(Cl)nn12 (stereo partly drawn) [Example 20, 1-(2-chloro-7-((S)-1-methoxyethyl)pyrazolo [1,5-a]pyrimidin-6-yl)-3-(2-(2,2,2-trifluoro-1-hydroxyethyl)pyridin-4-yl)urea] | 101 nM | 9 nM
10 | COCCOc1ncc(Cl)cc1NC(=O)Nc1cnc2cc(Cl)nn2c1[C@H](C)OC [Example 21, (S)-1-(5-chloro-2-(2-methoxyethoxy)pyridin-3-yl)-3-(2-chloro-7-(1-methoxyethyl)-pyrazolo[1,5-a]pyrimidin-6-yl)urea] | 47 nM | 9 nM
11 | CO[C@@H](C)c1c(NC(=O)Nc2ccnc(C#N)c2)cnc2cc(F)nn12 [Example 23, (S)-1-(2-cyanopyridin-4-yl)-3-(2-fluoro-7-(1-methoxyethyl)pyrazolo [1,5-a]pyrimidin-6-yl)urea] | 42 nM | 16 nM
12 | COc1ncc(NC(=O)Nc2cnc3cc(C)nn3c2[C@H](C)OC)cc1C#N [Example 24, (S)-1-(5-cyano-6-methoxypyridin-3-yl)-3-(7-(1-methoxyethyl)-2-methylpyrazolo[1,5-a]pyrimidin-6-yl)urea] | 62 nM | 14 nM
13 | COc1ncc(NC(=O)Nc2cnc3cc(Cl)nn3c2[C@H](C)O[C@H]2CCN(C(C)=O)C2)cc1C#N [Example 26, 1-(7-((S)-1-(((S)-1-acetylpyrrolidin-3-yl)oxy)ethyl)-2-chloropyrazolo[1,5-a]pyrimidin-6-yl)-3-(5-cyano-6-methoxypyridin-3-yl)urea] | 113 nM | 22 nM
14 | CO[C@@H](C)c1c(NC(=O)Nc2cc(Cl)nc(C(=O)N(C)C)c2)cnc2cc(Cl)nn12 [Example 28, (S)-6-chloro-4-(3-(2-chloro-7-(1-methoxyethyl)pyrazolo [1,5-a]pyrimidin-6-yl)ureido)-N, N-dimethylpicolinamide] | 45 nM | 13 nM

The remaining molecules from weak to strong by IC50 [1], led by results:

Row | IC50 [1] | IC50 [2] | Structure (SMILES)
15 | 38 nM | 2 nM | CO[C@H](c1c(NC(=O)Nc2cnc(-n3nccn3)c(C(F)(F)F)c2)cnc2cc(Cl)nn12)C(C)C [Example 8, (S)-1-(6-(2H-1,2,3-triazol-2-yl)-5-(trifluoromethyl)pyridin-3-yl)-3-(2-chloro-7-(1-methoxy-2-methylpropyl)pyrazolo [1,5-a]pyrimidin-6-yl)urea]
16 | 35 nM | 8 nM | CO[C@@H](C)c1c(NC(=O)Nc2cnc(-n3nccn3)c(C#N)c2)cnc2cc(C)nn12 [Example 27, (S)-1-(5-cyano-6-(2H-1,2,3-triazol-2-yl)pyridin-3-yl)-3-(7-(1-methoxyethyl)-2-methylpyrazolo[1,5-a]pyrimidin-6-yl)urea]
17 | 27 nM | 7 nM | COCCO[C@@H](C)c1c(NC(=O)Nc2cnc(-n3nccn3)c(C(F)(F)F)c2)cnc2cc(Cl)nn12 [Example 7, (S)-1-(6-(2H-1,2,3-triazol-2-yl)-5-(trifluoromethyl)pyridin-3-yl)-3-(2-chloro-7-(1-(2-methoxyethoxy)ethyl)pyrazolo[1,5-a]pyrimidin-6-yl)urea]
18 | 25 nM | 7 nM | COc1ncc(NC(=O)Nc2cnc3cc(C)nn3c2[C@@H](OC)C(C)C)cc1C#N [Example 22, (S)-1-(5-cyano-6-methoxypyridin-3-yl)-3-(7-(1-methoxy-2-methylpropyl)-2-methylpyrazolo[1,5-a]pyrimidin-6-yl)urea]
19 | 22 nM |  | CO[C@@H](C)[C@H](OC)c1c(NC(=O)Nc2cnc(-n3nccn3)c(Cl)c2)cnc2cc(Cl)nn12 [Example 10, 1-(5-chloro-6-(2H-1,2,3-triazol-2-yl)pyridin-3-yl)-3-(2-chloro-7-((1R, 2S)-1,2-dimethoxypropyl)pyrazolo[1,5-a]pyrimidin-6-yl) urea]
20 | 21 nM | 4 nM | CO[C@@H](C)[C@H](OC)c1c(NC(=O)Nc2cnc(-n3nccn3)c(C#N)c2)cnc2cc(Cl)nn12 [Example 25, 1-(2-chloro-7-((1R, 2S)-1,2-dimethoxypropyl)pyrazolo[1,5-a]pyrimidin-6-yl)-3-(5-cyano-6-(2H-1,2,3-triazol-2-yl)pyridin-3-yl)urea]
21 | 20 nM | 3 nM | COc1ncc(NC(=O)Nc2cnc3cc(Cl)nn3c2[C@H](C)OC)cc1C#N [Example 16, (S)-1-(2-chloro-7-(1-methoxyethyl)pyrazolo [1,5-a]pyrimidin-6-yl)-3-(5-cyano-6-methoxypyridin-3-yl)urea]
22 | 19 nM | 4 nM | CO[C@@H](C)c1c(NC(=O)Nc2cnc(-n3nccn3)c(C#N)c2)cnc2cc(F)nn12 [Example 18, (S)-1-(5-cyano-6-(2H-1,2,3-triazol-2-yl)pyridin-3-yl)-3-(2-fluoro-7-(1-methoxyethyl)pyrazolo [1,5-a]pyrimidin-6-yl)urea]
23 | 12 nM | 2 nM | CO[C@@H](C)c1c(NC(=O)Nc2cnc(-n3nccn3)c(C#N)c2)cnc2cc(Cl)nn12 [Example 11, (S)-1-(2-chloro-7-(1-methoxyethyl)pyrazolo[1,5-a]pyrimidin-6-yl)-3-(5-cyano-6-(2H-1,2,3-triazol-2-yl)pyridin-3-yl)urea]
24 | 12 nM | 9 nM | CO[C@H](c1c(NC(=O)Nc2cnc(-n3nccn3)c(C#N)c2)cnc2cc(C)nn12)C(C)C [Example 15, (S)-1-(5-cyano-6-(2H-1,2,3-triazol-2-yl)pyridin-3-yl)-3-(7-(1-methoxy-2-methylpropyl)-2-methylpyrazolo[1,5-a]pyrimidin-6-yl)urea]
25 | 6 nM | 3 nM | CO[C@H](c1c(NC(=O)Nc2cnc(-n3nccn3)c(Cl)c2)cnc2cc(F)nn12)C(C)C [Example 14, (S)-1-(5-chloro-6-(2H-1,2,3-triazol-2-yl)pyridin-3-yl)-3-(2-fluoro-7-(1-methoxy-2-methylpropyl)pyrazolo [1,5-a]pyrimidin-6-yl)urea]
